Data published in the CheMixHub viscosity set.
Several values for one entry are separate records, joined by “and”; a condition that tells them apart may be missing. Equal entries are not always repeated.

Legend:
[1] = xn = mol fraction of the nth substance listed; details: 101.33 kPa

CC(=O)OC(C)C
101 kPa
Details | viscosity
298.15 K | 0.49 mPa·s
308.15 K | 0.4342 mPa·s and 0.4323 mPa·s

CCN(C=O)CC
viscosity [mPa·s]
Details | 298.15 K | 298.16 K | 308.15 K | 323.15 K
101 kPa | 1.25 | 1.139 | 1.03 | 0.86
101.33 kPa | 1.254 | – | – | 0.851

CCCC(=O)O
viscosity
Details | 293.15 K | 303.15 K | 313.15 K | 323.15 K
101 kPa | 1.778 mPa·s and 1.54 mPa·s and 1.78 mPa·s | 1.296 mPa·s and 1.331 mPa·s and 1.33 mPa·s | 1.12 mPa·s | 0.9885 mPa·s
101.33 kPa | 1.623 mPa·s | – | 1.184 mPa·s | –

CCCC(C)O (stereo not drawn)
Details | viscosity
293.15 K, 101.33 kPa | 3.376 mPa·s
298.15 K, 100 kPa | 3.426 mPa·s
298.15 K, 101 kPa | 3.38 mPa·s and 3.2 mPa·s
298.15 K, 101.3 kPa | 3.45 mPa·s
303 K, 101.33 kPa | 2.677 mPa·s
303.15 K, 101 kPa | 2.739 mPa·s
303.15 K, 101.33 kPa | 2.763 mPa·s and 2.888 mPa·s and 2.887 mPa·s
308.15 K, 101 kPa | 2.312 mPa·s
308.15 K, 101.3 kPa | 2.32 mPa·s
313 K, 101.33 kPa | 2.014 mPa·s
313.15 K, 101 kPa | 1.943 mPa·s
313.15 K, 101.3 kPa | 1.92 mPa·s
313.15 K, 101.33 kPa | 2.017 mPa·s
318.15 K, 101 kPa | 1.674 mPa·s
323.15 K, 101 kPa | 1.479 mPa·s
323.15 K, 101.33 kPa | 1.521 mPa·s

CCCCCCn1cc[n+](C)c1C.O=S(=O)([N-]S(=O)(=O)C(F)(F)F)C(F)(F)F
100 kPa
Details | viscosity [mPa·s]
293.15 K | 172
298.15 K | 129
303.15 K | 99
308.15 K | 78

CCCCNCCCC
viscosity
Details | 293.15 K | 298.15 K | 303.15 K | 308.15 K | 313.15 K | 318.15 K | 323.15 K
100 kPa | – | 0.81 mPa·s | 0.75 mPa·s | 0.71 mPa·s | – | – | –
101 kPa | – | – | 0.764 mPa·s and 0.7734 mPa·s | 0.7184 mPa·s and 0.6757 mPa·s | 0.6692 mPa·s | 0.6249 mPa·s | 0.5859 mPa·s
101.33 kPa | 0.85 mPa·s | 0.81 mPa·s | 0.73 mPa·s | 0.698 mPa·s | 0.64 mPa·s | 0.611 mPa·s | 0.56 mPa·s

CCCCCCCBr
101 kPa
Details | viscosity [mPa·s]
293.15 K | 1.205
303.15 K | 1.05
313.15 K | 0.925
323.15 K | 0.82

CC[N+](CC)(CC)CC.[OH-]
viscosity [mPa·s]
Details | 298.15 K | 303.15 K | 308.15 K | 313.15 K
100 kPa | 4.94 | 4.72 | 4.43 | 4.27
101 kPa | 4.94 | 4.72 | 4.43 | 4.27

COCCO
viscosity
Details | 293.15 K | 298.15 K | 303.15 K | 308.15 K | 313.15 K | 318.15 K | 323.15 K
100 kPa | – | 1.649 mPa·s and 1.563 mPa·s | 1.457 mPa·s | 1.292 mPa·s | 1.15 mPa·s and 1.188 mPa·s | – | –
101 kPa | 1.78 mPa·s | – | – | – | – | – | 0.931 mPa·s and 0.9856 mPa·s and 0.965 mPa·s
101.3 kPa | – | 1.522 mPa·s and 1.695 mPa·s | 1.381 mPa·s and 1.525 mPa·s and 1.376 mPa·s | 1.242 mPa·s and 1.368 mPa·s | 1.151 mPa·s and 1.155 mPa·s | – | 0.9746 mPa·s
101.33 kPa | – | 1.552 mPa·s | 1.476 mPa·s | – | 1.2 mPa·s and 1.189 mPa·s | 1.098 mPa·s and 1.04 mPa·s and 1.042 mPa·s | –

CC(CC(C)(C)C)CC(C)(C)CC(C)(C)C (stereo not drawn)
viscosity
Details | 293.15 K | 298.15 K | 303.15 K | 313.15 K | 323.15 K
100 kPa | 3.64 mPa·s and 3.64 mPa·s and 3.782 mPa·s (2×) | – | 2.984 mPa·s | 2.43 mPa·s and 2.43 mPa·s and 2.411 mPa·s (2×) | 2.01 mPa·s and 2.01 mPa·s and 2.018 mPa·s (2×)
101.33 kPa | – | 3.343 mPa·s | – | – | –

CC(=O)[O-].CC[NH+](CC)CC
101 kPa
Details | viscosity
303.15 K | 19.6 mPa·s and 19.64 mPa·s
308.15 K | 16.13 mPa·s and 16.13 mPa·s
313.15 K | 14.81 mPa·s

CCOC(=O)C(=O)OCC
101 kPa
Details | viscosity [mPa·s]
313.15 K | 1.361
323.15 K | 1.154

CCCC[N+](C)(CCCC)CCCC.N#C[N-]C#N
101 kPa
Details | viscosity [mPa·s]
293.15 K | 497.7
303.15 K | 238.9
313.15 K | 127.3
323.15 K | 74.87

C1CCNCC1
101 kPa
Details | viscosity [mPa·s]
298.15 K | 1.31
303.15 K | 1.21
323.15 K | 0.757

CCC[N+]1(C)CCCC1.O=S(=O)([N-]S(=O)(=O)C(F)(F)F)C(F)(F)F
viscosity [mPa·s]
Details | 293.15 K | 298.15 K | 303.15 K | 308.15 K | 313.15 K | 318.15 K | 323.15 K
101 kPa | – | – | – | – | 34.4 | – | –
101.3 kPa | 76.4 | 61.2 | 49.8 | 41.1 | 34.4 | 29.2 | 25

C#CC(C)(C)O
101.32 kPa
Details | viscosity [mPa·s]
308.15 K | 2.09
313.15 K | 1.775
318.15 K | 1.551
323.15 K | 1.347

C1CC[C@H]2CCCC[C@H]2C1
viscosity [mPa·s]
Details | 293.15 K | 303.15 K | 313.15 K | 323.15 K
100 kPa | – | 2.704 | 2.214 | 1.861
101 kPa | 3.337 | 2.444 | – | –
101.3 kPa | 3.361 | 2.641 | – | –

CCCCCCCC[n+]1ccc2ccccc2c1.O=S(=O)([N-]S(=O)(=O)C(F)(F)F)C(F)(F)F
101 kPa
Details | viscosity
298.15 K | 369.3 mPa·s and 369.3 mPa·s
308.15 K | 191 mPa·s and 191 mPa·s
318.15 K | 108.7 mPa·s and 108.7 mPa·s

CC(O)=S
Details | viscosity
298.1 K, 101 kPa | 0.687 mPa·s and 0.687 mPa·s

CCCCBr
101 kPa
Details | viscosity
295.95 K | 0.6116 mPa·s
298.15 K | 0.606 mPa·s
303.45 K | 0.5621 mPa·s
308.15 K | 0.552 mPa·s and 0.5235 mPa·s
313.25 K | 0.5057 mPa·s
318.15 K | 0.502 mPa·s
323.15 K | 0.476 mPa·s

CCCCNCCCC + CC(C)CO
viscosity [mPa·s], [1]
Details | 298.15 K | 308.15 K | 318.15 K
x1 = 0.0659 | 3.147 | 2.311 | 1.743
x1 = 0.0962 | 3.01 | 2.218 | 1.683
x1 = 0.1558 | 2.74 | 2.038 | 1.562
x1 = 0.1967 | 2.557 | 1.918 | 1.482
x1 = 0.2681 | 2.25 | 1.708 | 1.336
x1 = 0.3132 | 2.076 | 1.591 | 1.256
x1 = 0.3956 | 1.791 | 1.394 | 1.118
x1 = 0.4699 | 1.576 | 1.245 | 1.011
x1 = 0.5552 | 1.379 | 1.11 | 0.914
x1 = 0.6322 | 1.234 | 1.007 | 0.838
x1 = 0.7567 | 1.05 | 0.874 | 0.743
x1 = 0.8163 | 0.985 | 0.824 | 0.708
x1 = 0.8647 | 0.93 | 0.787 | 0.678
x1 = 0.8978 | 0.901 | 0.766 | 0.662
x1 = 0.9162 | 0.882 | 0.751 | 0.651
